Patent publication US20110077248A1, “IMIDAZOPYRIDINE AND RELATED ANALOGS AS SIRTUIN MODULATORS” (Sirtris Pharmaceuticals, Inc., priority 2008, published 2011)

Target: T1, SIRT1 (Homo sapiens, UniProt Q96EB6)
T1 construct: His-tag (N); made in house; host or cells: E. coli BL21(DE3), T7-promoter vector
T1 sequence (Q96EB6 1-747): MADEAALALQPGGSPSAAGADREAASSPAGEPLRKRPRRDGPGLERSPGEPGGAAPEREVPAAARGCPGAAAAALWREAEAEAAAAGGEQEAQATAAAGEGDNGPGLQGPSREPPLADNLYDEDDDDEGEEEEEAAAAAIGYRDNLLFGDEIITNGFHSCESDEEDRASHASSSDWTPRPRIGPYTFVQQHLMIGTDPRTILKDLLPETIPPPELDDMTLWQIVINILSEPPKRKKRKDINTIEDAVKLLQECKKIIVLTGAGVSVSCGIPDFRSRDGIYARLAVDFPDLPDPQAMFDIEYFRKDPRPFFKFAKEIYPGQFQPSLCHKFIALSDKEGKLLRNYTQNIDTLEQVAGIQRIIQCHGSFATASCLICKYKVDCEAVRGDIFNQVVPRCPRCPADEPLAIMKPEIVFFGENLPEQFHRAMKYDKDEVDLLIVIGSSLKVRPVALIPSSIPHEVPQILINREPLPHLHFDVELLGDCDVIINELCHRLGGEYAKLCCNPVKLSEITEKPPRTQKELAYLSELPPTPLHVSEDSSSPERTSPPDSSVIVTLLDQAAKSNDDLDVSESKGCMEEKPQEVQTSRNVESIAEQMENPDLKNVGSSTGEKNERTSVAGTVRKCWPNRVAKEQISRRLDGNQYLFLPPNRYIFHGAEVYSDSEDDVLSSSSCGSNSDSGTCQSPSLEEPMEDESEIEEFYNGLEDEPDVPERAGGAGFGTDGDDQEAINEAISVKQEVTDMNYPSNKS
Test: Mass spectrometry based assay for modulators of SIRT1 activity (deacetylation of p53-based acetylated peptide)
Type: biochemical
Details: for EC1.5: concentration of test compound that results in 150% activation of SIRT1, 0.5 μM peptide substrate, 120 μM βNAD+, 10 nM SIRT1, 25 min, 25° C.; for Emax: percent maximum fold activation of SIRT1
Description: A mass spectrometry based assay was used to identify modulators of SIRT1 activity. The mass spectrometry based assay utilizes a peptide having 20 amino acid residues as follows: Ac-EE-K(biotin)-GQSTSSHSK(Ac)NleSTEG-K(5TMRi)-EE-NH2 (SEQ ID NO: 1) wherein K(Ac) is an acetylated lysine residue and Nle is a norleucine. The peptide is labeled with the fluorophore 5TMR (excitation 540 nm/emission 580 nm) at the C-terminus. The sequence of the peptide substrate is based on p53 with several modifications. In addition, the methionine residue naturally present in the sequence was replaced with the norleucine because the methionine may be susceptible to oxidation during synthesis and purification.
The mass spectrometry assay is conducted as follows: 0.5 μM peptide substrate and 120 μM βNAD+ is incubated with 10 nM SIRT1 for 25 minutes at 25° C. in a reaction buffer (50 mM Tris-acetate pH 8, 137 mM NaCl, 2.7 mM KCl, 1 mM MgCl2, 5 mM DTT, 0.05% BSA). Test compounds may be added to the reaction as described above. The SirT1 gene is cloned into a T7-promoter containing vector and transformed into BL21(DE3). After the 25 minute incubation with SIRT1, 10 μL of 10% formic acid is added to stop the reaction. Reactions are sealed and frozen for later mass spec analysis. Determination of the mass of the substrate peptide allows for precise determination of the degree of acetylation (i.e. starting material) as compared to deacetylated peptide (product).
A control for inhibition of sirtuin activity is conducted by adding 1 μL of 500 mM nicotinamide as a negative control at the start of the reaction (e.g., permits determination of maximum sirtuin inhibition). A control for activation of sirtuin activity is conducted using 10 nM of sirtuin protein, with 1 μL of DMSO in place of compound, to determinine the amount of deacetylation of the substrate at a given timepoint within the linear range of the assay. This timepoint is the same as that used for test compounds and, within the linear range, the endpoint represents a change in velocity.
For the above assay, SIRT1 protein was expressed and purified as follows. The SirT1 gene was cloned into a T7-promoter containing vector and transformed into BL21(DE3). The protein was expressed by induction with 1 mM IPTG as an N-terminal His-tag fusion protein at 18° C. overnight and harvested at 30,000×g. Cells were lysed with lysozyme in lysis buffer (50 mM Tris-HCl, 2 mM Tris[2-carboxyethyl]phosphine (TCEP), 10 μM ZnCl2, 200 mM NaCl) and further treated with sonication for 10 min for complete lysis. The protein was purified over a Ni-NTA column (Amersham) and fractions containing pure protein were pooled, concentrated and run over a sizing column (Sephadex S200 26/60 global). The peak containing soluble protein was collected and run on an Ion-exchange column (MonoQ). Gradient elution (200 mM-500 mM NaCl) yielded pure protein. This protein was concentrated and dialyzed against dialysis buffer (20 mM Tris-HCl, 2 mM TCEP) overnight. The protein was aliquoted and frozen at −80° C. until further use.
Sirtuin modulating compounds that activated SIRT1 were identified using the assay described above and are shown below in Table 1. The EC1.5 values represent the concentration of test compounds that result in 150% activation of SIRT1. The EC1.5 values for the activating compounds are represented by A (EC1.5<1.0 uM), B (EC1.5 1-25 uM), C (EC1.5>25 uM). The percent maximum fold activation is represented by A (Fold activation >200%) or B (Fold Activation <200%). “NT” indicates the compound was not tested in a particular assay.

| SMILES | EC1.5 | Emax |
| --- | --- | --- |
| O=C(Nc1ccccn1)c1cccn2nc(-c3cccc(N4CCOCC4)c3)nc12 [Compound 182] | B (EC1.5 1-25 uM) | < 200% |
| O=C(Nc1nccs1)c1cccn2cc(-c3ccc(N4CCOCC4)cc3)nc12 [Compound 183] | C (EC1.5>25 uM) | < 200% |
| O=C(Nc1ccccn1)c1cccn2cc(-c3ccc(N4CCOCC4)cc3)nc12 [Compound 184] | C (EC1.5>25 uM) | < 200% |
| O=C(Nc1nccs1)c1nccn2cc(-c3ccccc3OC(F)(F)F)nc12 [Compound 185] | B (EC1.5 1-25 uM) | > 200% |
| O=C(Nc1ccccn1)c1nccn2cc(-c3ccccc3OC(F)(F)F)nc12 [Compound 186] | B (EC1.5 1-25 uM) | > 200% |
| Cc1cnc(NC(=O)c2nccn3cc(-c4ccccc4OC(F)(F)F)nc23)s1 [Compound 187] | B (EC1.5 1-25 uM) | > 200% |
| O=C(Nc1nccs1)c1nccn2cc(-c3ccc(F)cc3C(F)(F)F)nc12 [Compound 188] | B (EC1.5 1-25 uM) | > 200% |
| O=C(Nc1ccccn1)c1nccn2cc(-c3ccc(F)cc3C(F)(F)F)nc12 [Compound 189] | B (EC1.5 1-25 uM) | > 200% |
| Cc1cnc(NC(=O)c2nccn3cc(-c4ccc(F)cc4C(F)(F)F)nc23)s1 [Compound 190] | A (EC1.5<1.0 uM) | > 200% |
| O=C(Nc1cccnn1)c1nccn2cc(-c3ccc(F)cc3C(F)(F)F)nc12 [Compound 191] | B (EC1.5 1-25 uM) | > 200% |
| O=C(Nc1nccs1)c1cccn2cc(-c3ccc(C(F)F)cc3)nc12 [Compound 202, 2-(4-(difluoromethyl)phenyl)-N-(thiazol-2-yl)imidazo[1,2-a]pyridine-8-carboxamide] | C (EC1.5>25 uM) | < 200% |
| O=C(Nc1ccccn1)c1cccn2cc(-c3ccc(C(F)F)cc3)nc12 [Compound 203] | C (EC1.5>25 uM) | < 200% |
| O=C(Nc1cccc(CN2CCOCC2)n1)c1cccn2cc(-c3ccc(C(F)F)cc3)nc12 [Compound 205] | A (EC1.5<1.0 uM) | > 200% |
| O=C(Nc1nccs1)c1cccn2cc(-c3cccc(C(F)F)c3)nc12 [Compound 206] | B (EC1.5 1-25 uM) | < 200% |
| O=C(Nc1ccccn1)c1cccn2cc(-c3cccc(C(F)F)c3)nc12 [Compound 207] | A (EC1.5<1.0 uM) | < 200% |
| Cc1ccc(-c2nc3c(C(=O)Nc4nccs4)cccn3n2)cn1 [Compound 210, 2-(6-methylpyridin-3-yl)-N-(thiazol-2-yl)-[1,2,4]triazolo[1,5-a]pyridine-8-carboxamide] | C (EC1.5>25 uM) | < 200% |
| Cc1ccc(-c2nc3c(C(=O)Nc4ccccn4)cccn3n2)cn1 [Compound 211] | C (EC1.5>25 uM) | < 200% |
| Cc1ccc(-c2nc3c(C(=O)Nc4cccc(CN5CCOCC5)n4)cccn3n2)cn1 [Compound 213] | B (EC1.5 1-25 uM) | > 200% |
| Cc1cc(-c2nc3c(C(=O)Nc4nccs4)cccn3n2)ccn1 [Compound 214, 2-(2-methylpyridin-4-yl)-N-(thiazol-2-yl)-[1,2,4]triazolo[1,5-a]pyridine-8-carboxamide] | B (EC1.5 1-25 uM) | > 200% |
| Cc1cc(-c2nc3c(C(=O)Nc4ccccn4)cccn3n2)ccn1 [Compound 215] | B (EC1.5 1-25 uM) | > 200% |
| Cc1cc(-c2nc3c(C(=O)Nc4cccc(CN5CCOCC5)n4)cccn3n2)ccn1 [Compound 217] | B (EC1.5 1-25 uM) | > 200% |
| O=C(Nc1ccc(CCN2CCCC2)cc1)c1cccn2cc(-c3ccc(F)cc3C(F)(F)F)nc12 [Compound 218] | C (EC1.5>25 uM) | < 200% |

The next lines start with the values.

| EC1.5 | Emax | SMILES |
| --- | --- | --- |
| A (EC1.5<1.0 uM) | > 200% | O=C(Nc1nc(CN2CCOCC2)cs1)c1cccn2cc(-c3cc(F)cc(F)c3)nc12 [Compound 192] |
| A (EC1.5<1.0 uM) | > 200% | O=C(Nc1cccc(CN2CCOCC2)n1)c1cccn2cc(-c3cc(F)cc(F)c3)nc12 [Compound 193] |
| B (EC1.5 1-25 uM) | > 200% | O=C(Nc1nc(CN2CCOCC2)cs1)c1nccn2cc(-c3ccc(F)c(F)c3)nc12 [Compound 194] |
| B (EC1.5 1-25 uM) | > 200% | O=C(Nc1cccc(CN2CCOCC2)n1)c1cccn2cc(-c3ccc(F)c(F)c3)nc12 [Compound 195] |
| B (EC1.5 1-25 uM) | < 200% | O=C(Nc1nc(CN2CCOCC2)cs1)c1cccn2cc(-c3cc(F)c(F)c(F)c3)nc12 [Compound 196] |
| B (EC1.5 1-25 uM) | > 200% | O=C(Nc1cccc(CN2CCOCC2)n1)c1cccn2cc(-c3cc(F)c(F)c(F)c3)nc12 [Compound 197] |
| A (EC1.5<1.0 uM) | < 200% | O=C(Nc1nc(CN2CCOCC2)cs1)c1cccn2cc(-c3ccc(F)cc3F)nc12 [Compound 198] |
| B (EC1.5 1-25 uM) | < 200% | O=C(Nc1cccc(CN2CCOCC2)n1)c1cccn2cc(-c3ccc(F)cc3F)nc12 [Compound 199] |
| A (EC1.5<1.0 uM) | > 200% | O=C(Nc1nc(CN2CCOCC2)cs1)c1cccn2cc(-c3cc(F)ccc3F)nc12 [Compound 200] |
| A (EC1.5<1.0 uM) | > 200% | O=C(Nc1cccc(CN2CCOCC2)n1)c1cccn2cc(-c3cc(F)ccc3F)nc12 [Compound 201] |
| B (EC1.5 1-25 uM) | > 200% | O=C(Nc1nc(CN2CCOCC2)cs1)c1cccn2cc(-c3ccc(C(F)F)cc3)nc12 [Compound 204] |
| A (EC1.5<1.0 uM) | > 200% | O=C(Nc1nc(CN2CCOCC2)cs1)c1cccn2cc(-c3cccc(C(F)F)c3)nc12 [Compound 208] |
| A (EC1.5<1.0 uM) | > 200% | O=C(Nc1cccc(CN2CCOCC2)n1)c1cccn2cc(-c3cccc(C(F)F)c3)nc12 [Compound 209] |
| B (EC1.5 1-25 uM) | < 200% | Cc1ccc(-c2nc3c(C(=O)Nc4nc(CN5CCOCC5)cs4)cccn3n2)cn1 [Compound 212] |
| B (EC1.5 1-25 uM) | > 200% | Cc1cc(-c2nc3c(C(=O)Nc4nc(CN5CCOCC5)cs4)cccn3n2)ccn1 [Compound 216] |
